Assay results: US7011772B2, “UV absorbing mixture with textile fiber affinity” (BASF Aktiengesellschaft, priority 2000, dated 2006)

Tests used:
[1] = UV protection factor UPF of cotton fabric after laundry aftertreatment in final rinse bath; settings: in Lenor care conditioner 1000 ppm, dried white cotton fabric, AS/NZS 4399:1996
Experimental: The UV protection factor UPF of textiles is determined in accordance with the Australian/New Zealand standard AS/NZS 4399:1996 using an in vitro method. It measures the UV transmission of the textile object. The spectral transmission can be used to determine the protection factor directly using the following equation: [formula] where • Sλ=spectral irradiation of the sun in the UV region at the wavelength λ • Eλ=spectral erythema action of the UV radiation at the wavelength λ • Tλ=spectral transmission of the textile object at the wavelength λ.
White woven cotton fabric having a basis weight of 100 g/mm^2 [sic] and a UV protection factor UPF of 4.50 was washed using a water hardness of 3 mmol/l. The laundering process was a main wash cycle at 40° C. with a commercially available laundry detergent (Ariel® Color) and a subsequent conditioning rinse. The conditioner used was a commercially available formulation (Lenor® care) in a dosage of 1000 ppm, based on the liquor. […] After the conditioning rinse cycle, the fabric was removed and its UV protection factor UPF was determined in the dried state.

[2] = Photostability of dyed cotton fabric after conditioning rinse (SUNTEST exposure, K/S values); settings: 200 ppm based on the liquor; 14 hours SUNTEST exposure under outdoor conditions; K/S at maximum of K/S spectra; higher = higher photostability
Experimental: Woven cotton fabric dyed with Reactive Black 5 to ⅓ standard depth of shade was treated in the conditioning rinse cycle with a commercially available formulation (Lenor® care, 1000 ppm based on the liquor) in the presence of an inventive UV absorber mixture M1, M2, M3, M4, M5, M6 or M7 (each at 200 ppm based on the liquor) in a liquor ratio of 12.5:1. After the conditioning rinse cycle, the dyed fabric was removed and tested for photostability in the dried state.
The samples were exposed in a SUNTEST® tabletop accelerated lighting unit (from Heraeus, Hanau) for 14 hours under outdoor conditions. A spectrophotometer incl. an integration sphere (“Lambda 900” from Perkin Elmer) was used to measure the reflectance spectra of dyeings before and after exposure. These reflectance spectra were converted in line with the Kubelka-Munk theory into K/S spectra (K=absorption coefficient, S=scattering coefficient). The photostabilities are evaluated with reference to the K/S values after 14 hour exposure relative to the K/S values prior to exposure (K/S in each case at the maximum of the K/S spectra). The higher the value in % reported in Table 2, the higher the photostability.

CCCCC(CC)COC(=O)C(C#N)=C(c1ccccc1)c1ccccc1 (stereo not shown) [Mixture A1, 2-ethylhexyl 2-cyano-3,3-diphenylacrylate]
UPF with 50 ppm ([1]; 50 ppm UV absorber based on the liquor): 8.6
UPF with 100 ppm ([1]; 100 ppm UV absorber based on the liquor): 13.5
UPF with 200 ppm ([1]; 200 ppm UV absorber based on the liquor): 21.1
K/S (14 h)/K/S (0 h) × 100% [2]: 67.7%
